Laboratory results: US12077503B2, “Substituted cyclic amides and their use as herbicides” (FMC CORPORATION, priority 2015, dated 2024)

Experiments:
Format in all cases: in vivo
[1] = tested on: ducksalad (Heteranthera limosa); assay: Test B flooded paddy test; conditions: Heteranthera limosa, 250 g ai/ha, Flood; 0 to 100 scale where 0 is no effect and 100 is complete control; read-out: Ducksalad plant response rating
Procedure, shortened: (§1)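 Rating scale 0–100 (visual, vs untreated controls) after a 13–15 d greenhouse period; application to the flood layer, 3 cm above soil and maintained; plants at 2-leaf stage when treated.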

[2] = tested on: sedge, umbrella (small-flower umbrella sedge, Cyperus difformis); assay: Test B flooded paddy test; conditions: Cyperus difformis, 250 g ai/ha, Flood; 0 to 100 scale where 0 is no effect and 100 is complete control; read-out: Sedge, Umbrella plant response rating
Procedure, shortened: as §1

[3] = tested on: barnyardgrass (Echinochloa crus-galli); assay: Test B flooded paddy test; conditions: Echinochloa crus-galli, 250 g ai/ha, Flood; 0 to 100 scale where 0 is no effect and 100 is complete control; read-out: Barnyardgrass plant response rating
Procedure, shortened: as §1

rice (Oryra sativa) = assay: Test B flooded paddy test; conditions: Oryza sativa, 250 g ai/ha, Flood; 0 to 100 scale where 0 is no effect and 100 is complete control; read-out: Rice plant response rating
Procedure, shortened: as §1

[4] = tested on: pigweed (Amaranthus retroflexus); assay: Test A postemergence; conditions: Amaranthus retroflexus, post-emergence, 240 h, read-out: Pigweed plant response rating (0 to 100 scale)
Procedure, shortened: (§2)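 Ratings of 0 (no effect) to 100 (complete control) come from visual comparison with untreated controls roughly 10 d after treatment. Test chemicals, formulated in a non-phytotoxic solvent mixture with surfactant, were applied either as a preemergence directed soil spray on seeded soil or postemergence to one- to two-leaf plants 2 to 10 cm tall.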

[5] = tested on: wheat (Triticum aestivum); assay: Test A postemergence; conditions: Triticum aestivum, post-emergence, 240 h, Postemergence, 31 g ai/ha; 0 is no effect, 100 is complete control; read-out: Wheat plant response rating (0 to 100 scale)
Procedure, shortened: as §2

[6] = tested on: giant foxtail (Setaria faberii); assay: Test A postemergence; conditions: Setaria faberi, post-emergence, 240 h, read-out: Foxtail, Giant plant response rating (0 to 100 scale)
Procedure, shortened: as §2

[7] = tested on: blackgrass (Alopecurus myosuroides); assay: Test A postemergence; conditions: Alopecurus myosuroides, post-emergence, 240 h, read-out: Blackgrass plant response rating (0 to 100 scale)
Procedure, shortened: as §2

[8] = tested on: barnyardgrass (Echinochloa crus-galli); assay: Test A postemergence; conditions: Echinochloa crus-galli, post-emergence, 240 h, read-out: Barnyardgrass plant response rating (0 to 100 scale)
Procedure, shortened: as §2

corn (Zea mays) = assay: Test A postemergence; conditions: Zea mays, post-emergence, 240 h, read-out: Corn plant response rating (0 to 100 scale)
Procedure, shortened: as §2

Kochia (Kochia scoparia) [9] = assay: Test A postemergence; conditions: Bassia scoparia, post-emergence, 240 h, read-out: Kochia plant response rating (0 to 100 scale)
Procedure, shortened: as §2

[10] = tested on: ryegrass, Italian (Italian ryegrass, Lolium multiflorum); assay: Test A postemergence; conditions: Lolium multiflorum, post-emergence, 240 h, read-out: Ryegrass, Italian plant response rating (0 to 100 scale)
Procedure, shortened: as §2

[11] = tested on: Galium (catchweed bedstraw, Galium aparine); assay: Test A postemergence; conditions: Galium, post-emergence, 240 h, read-out: Galium plant response rating (0 to 100 scale)
Procedure, shortened: as §2

[12] = tested on: ragweed (common ragweed, Ambrosia elatior); assay: Test A postemergence; conditions: Ambrosia artemisiifolia, post-emergence, 240 h, read-out: Ragweed plant response rating (0 to 100 scale)
Procedure, shortened: as §2

[13] = tested on: pigweed (Amaranthus retroflexus); assay: Test A preemergence; conditions: Amaranthus retroflexus, pre-emergence, 240 h, 0 to 100 scale where 0 is no effect and 100 is complete control, read-out: Pigweed plant response rating
[14] = tested on: giant foxtail (Setaria faberii); assay: Test A preemergence; conditions: Setaria faberi, pre-emergence, 240 h, 0 to 100 scale where 0 is no effect and 100 is complete control, read-out: Foxtail, Giant plant response rating
Procedure, shortened: as §2

[15] = tested on: barnyardgrass (Echinochloa crus-galli); assay: Test A preemergence; conditions: Echinochloa crus-galli, pre-emergence, 240 h, 0 to 100 scale where 0 is no effect and 100 is complete control, read-out: Barnyardgrass plant response rating
Procedure, shortened: as §2

Kochia (Kochia scoparia) [16] = assay: Test A preemergence; conditions: Bassia scoparia, pre-emergence, 240 h, 0 to 100 scale where 0 is no effect and 100 is complete control, read-out: Kochia plant response rating
Procedure, shortened: as §2

[17] = tested on: ryegrass, Italian (Italian ryegrass, Lolium multiflorum); assay: Test A preemergence; conditions: Lolium multiflorum, pre-emergence, 240 h, 0 to 100 scale where 0 is no effect and 100 is complete control, read-out: Ryegrass, Italian plant response rating
Procedure, shortened: as §2

[18] = tested on: ragweed (common ragweed, Ambrosia elatior); assay: Test A preemergence; conditions: Ambrosia artemisiifolia, pre-emergence, 240 h, 0 to 100 scale where 0 is no effect and 100 is complete control, read-out: Ragweed plant response rating
Procedure, shortened: as §2

[19] = 125 g ai/ha, postemergence, visual injury vs untreated controls after approx. 10 d, 0 = no effect, 100 = complete control
[20] = Postemergence, 31 g ai/ha, 0 is no effect, 100 is complete control
[21] = 125 g ai/ha, preemergence, visual injury rating, approximately 10 d

CN1C[C@H](c2ccc(Cl)c(F)c2)[C@@H](C(=O)Nc2cccc(F)c2F)C1=O [Compound 1265]
80%: pest or weed control at 125 g/ha [6, 19] | pest or weed control at 31 g/ha [6, 20] | pest or weed control at 31 g/ha [8, 20] | pest or weed control at 125 g/ha [13, 21] | pest or weed control at 31 g/ha ([15]; 31 g ai/ha, Preemergence)
70%: pest or weed control at 125 g/ha [4, 19] | plant injury at 125 g/ha (corn (Zea mays); [19]) | pest or weed control at 125 g/ha (Kochia (Kochia scoparia) [9]; [19]) | pest or weed control at 125 g/ha (Kochia (Kochia scoparia) [16]; [21])
90%: pest or weed control at 250 g/ha [1] | pest or weed control at 125 g/ha [8, 19] | pest or weed control at 31 g/ha ([14]; 31 g ai/ha, Preemergence) | pest or weed control at 125 g/ha [14, 21] | pest or weed control at 125 g/ha [15, 21]
50%: pest or weed control at 125 g/ha [7, 19] | pest or weed control at 31 g/ha (Kochia (Kochia scoparia) [9]; [20]) | pest or weed control at 31 g/ha ([17]; 31 g ai/ha, Preemergence)
0%: pest or weed control at 250 g/ha [2] | plant injury at 31 g/ha [5] | pest or weed control at 31 g/ha [7, 20] | pest or weed control at 31 g/ha [10, 20] | pest or weed control at 31 g/ha [12, 20] | pest or weed control at 31 g/ha ([13]; 31 g ai/ha, Preemergence) | pest or weed control at 31 g/ha ([18]; 31 g ai/ha, Preemergence) | pest or weed control at 125 g/ha [18, 21]
60%: pest or weed control at 250 g/ha [3] | pest or weed control at 125 g/ha [11, 19] | pest or weed control at 31 g/ha [11, 20] | pest or weed control at 125 g/ha [17, 21]
30%: pest or weed control at 31 g/ha [4, 20] | plant injury at 31 g/ha (corn (Zea mays); [20]) | pest or weed control at 125 g/ha [10, 19] | pest or weed control at 125 g/ha [12, 19] | pest or weed control at 31 g/ha (Kochia (Kochia scoparia) [16]; 31 g ai/ha, Preemergence)
45%: pest or weed control at 250 g/ha (rice (Oryra sativa))
